pIC50: −log10 of the molar value.
Key:
[1] = biological target: T1, CXCR-4 transfected U87 cell line (U87.CXCR4) (Homo sapiens, UniProt P61073); experiment: Intracellular CXCL-12-induced calcium mobilization assay (FLIPR); assay type: cell-based; settings: U87.CXCR4 cells; CXCL-12 25-50 ng/mL; compound added 15 min before; read-out: IC50 CXCL-12 Ca^2+ flux U87.CXCR4+
T1 construct: expressed in transfected cells; host or cells: U87 (U87.CXCR4)
How it was run: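 U87 cells stably expressing human CXCR4, loaded with Fluo-2 AM (4 μM final) for 45 min at 37 °C in HBSS/20 mM HEPES/0.2% BSA, pH 7.4. Calcium flux triggered by CXCL-12 (25-50 ng/mL) was followed by FLIPR fluorescence over time at 37 °C.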

[2] = biological target: T2, Jurkat cells expressing CXCR4 (Homo sapiens, UniProt P61073); experiment: Chemokine (CXCL12-AF647) binding inhibition assay; settings: CXCL12-AF647 25 ng/mL, read-out: IC50 CXCL-12 binding Jurkat
T2 construct: endogenous in cells; host or cells: Jurkat
How it was run: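 Cells in HBSS, 20 mM HEPES, 0.2% BSA, pH 7.4, preincubated 15 min at room temperature with compound, then 25 ng/mL CXCL12-AF647 for 30 min. After washing and paraformaldehyde fixation, bound ligand read by flow cytometry; percent inhibition calculated from MFI relative to unlabeled and ligand-only controls.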

in vitro = settings: human, Caco-2, pH 7.4
How it was run: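 Caco-2 monolayers, checked by TEER with Lucifer yellow as marker, were dosed with 10 μM compound in HBSS pH 7.4 in A-to-B and B-to-A directions. Incubation was 90 min at 37° C, in duplicate. Samples were quantified by LC-MS/MS and Papp calculated.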

[3] = Mouse brain uptake assay (MBUA), 3 mg/kg IV, 0-24 h, 4 time points; assay type: in vivo, male CD1 mice; settings: for Kp / clearance / half-life / AUC(0-t) / Kp uu: male; for Kp: CD1, mouse, brain/plasma, iv, 3 mg/kg; for clearance / half-life: CD1, plasma, 4 time points; for clearance / half-life / AUC(0-t) / Kp uu / fraction unbound: mouse; for clearance / half-life / AUC(0-t) / Kp uu: 3 mg/kg IV, 0-24 h; for half-life: read-out: t½ (converted); for AUC(0-t) / Kp uu: CD1; for Kp uu: unbound brain/unbound plasma
Description: (§1) Example 38: Pharmacokinetics and Brain Penetration Experiment to Determine Brain and Plasma Concentrations of Compounds after IV Administration to Male CD1 Mice
(§2) The study design (9 animals) consisted of administrating the drug (IV: 3 mg/kg (5 mL/kg) via tail vein injection) and collecting samples at terminal bleeding for plasma and brain at 0.083, 0.5 and 1 h. The IV dosing solution was prepared in 50 mM citrate buffer (pH 4.0) at 0.6 mg/mL. The blood collection was performed as follows: the animal was restrained manually and approximately 150 μL blood/time point was collected into a dipotassium EDTA tube via retro orbital puncture under anesthesia with isoflurane. The blood sample was put on ice and centrifuged to obtain a plasma sample (2000 g, 5 min under 4° C.) within 15 minutes. The brain collection was performed as follows: a mid-line incision was made in the animal's scalp and the skin was retracted. Using small bone cutters and rongeurs, the skull overlying the brain was removed. The brain was removed using a spatula and the brain rinsed with cold saline. The brain was placed in screw-top tubes, and the tubes were stored at −70° C. until analysis.
(§3) An aliquot of 30 μL sample was added to 150 μL MeCN containing 50 ng/mL IS (Dexamethasone). The mixture was vortexed for 5 min and centrifuged at 14,000 rpm for 5 min. An aliquot of 5 μL supernatant was injected for LC-MS/MS analysis.
(§4) An aliquot of 30 μL brain homogenate (brain:PBS=1:3, w/v) sample was added to 150 μL IS in MeCN (Dexamethasone, 50 ng/mL). The mixture was vortexed for 5 min and centrifuged at 14,000 rpm for 5 min. An aliquot of 5 μL supernatant was injected for LC-MS/MS analysis.
(§5) The sample analysis was performed on LCMS/MS-003 (API4000, triple quadruple) under the following conditions: positive ion, ESI, MRM detection using dexamethasone as internal standard. HPLC conditions: mobile phase A: H2O (0.025% formic acid (FA) with 1 mM NH4OAc); mobile phase B: MeOH (0.025% FA with 1 mM NH4OAc) on Waters X-Bridge C18 (2.1×50 mm, 2.5 μm) column at 60° C.
A similar experiment was performed with 4 time points taken from 0-24 h.

[4] = Mouse brain uptake assay (MBUA), 3 mg/kg IV, 0-1 h, 3 time points; assay type: in vivo, male CD1 mice; settings: for Kp / clearance / half-life / AUC(0-t) / Kp uu: male; for Kp: CD1, mouse, brain/plasma, iv, 3 mg/kg; for clearance / half-life: CD1, plasma, 3 time points; for clearance / half-life / AUC(0-t) / Kp uu / fraction unbound: mouse; for clearance / half-life / AUC(0-t) / Kp uu: 3 mg/kg IV, 0-1 h; for half-life: read-out: t½ (converted); for AUC(0-t) / Kp uu: CD1; for Kp uu: unbound brain/unbound plasma
Description: as §1, §2, §3, §4, §5

[5] = fraction unbound to brain proteins, read-out: Fu (b) %
[6] = fraction unbound to plasma proteins, read-out: Fu (p) %

T1 sequence (P61073 whole entry): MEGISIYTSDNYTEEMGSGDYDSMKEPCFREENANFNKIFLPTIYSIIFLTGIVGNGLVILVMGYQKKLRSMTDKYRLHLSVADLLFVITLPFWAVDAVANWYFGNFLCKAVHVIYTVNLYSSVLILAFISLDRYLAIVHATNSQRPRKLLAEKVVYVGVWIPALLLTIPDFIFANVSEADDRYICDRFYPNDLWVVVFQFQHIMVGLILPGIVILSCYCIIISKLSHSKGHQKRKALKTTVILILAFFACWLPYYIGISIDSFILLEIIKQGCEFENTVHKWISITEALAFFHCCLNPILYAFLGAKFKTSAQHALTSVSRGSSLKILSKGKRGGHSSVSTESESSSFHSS
T2 sequence (P61073 whole entry): as above

Row | pIC50 [1] | pIC50 [2] | Papp A→B at 90 min, 10 μM (in vitro) | Papp B→A at 90 min, 10 μM (in vitro) | efflux ratio at 90 min, 10 μM (in vitro) | Kp [3] | clearance [3] | half-life [3] | AUC(0-t) ([3]; brain, read-out: AUClast (b)) | AUC(0-t) ([3]; plasma, read-out: AUClast (P)) | Kp uu [3] | fraction unbound [3, 5] | fraction unbound [3, 6] | Compound | other results
1 | 7.00 to 11.00 | 7.00 to 11.00 | 10 to 30 ×10⁻⁶ cm/s | 10 to 30 ×10⁻⁶ cm/s | 0.1 to 10 |  |  |  |  |  |  |  |  | Cc1cccnc1[C@@H]1CCC[C@H](c2nc3cccc(N4CCN(C)C5(CC5)C4)c3[nH]2)N1 [I-132] | Kp [4]: 1.66; clearance [4]: 19.7 mL/min/kg; half-life [4]: 185 min; AUC(0-t) ([4]; brain, read-out: AUClast (b)): 539 ng·h/mL; AUC(0-t) ([4]; plasma, read-out: AUClast (P)): 323 ng·h/mL; Kp uu ([4]; read-out: Kp, uu): 0.54; fraction unbound [4, 5]: 0.01; fraction unbound [4, 6]: 0.031
2 | 7.00 to 11.00 | 7.00 to 11.00 | 0.1 to 10 ×10⁻⁶ cm/s | 10 to 30 ×10⁻⁶ cm/s | 0.1 to 10 |  |  |  |  |  |  |  |  | COc1cccnc1[C@@H]1CCC[C@H](c2nc3cccc(N4CCN(C)CC4)c3[nH]2)N1 [I-127] | Kp [4]: 0.31; clearance [4]: 132 mL/min/kg; half-life [4]: 23.2 min; AUC(0-t) ([4]; brain, read-out: AUClast (b)): 99.7 ng·h/mL; AUC(0-t) ([4]; plasma, read-out: AUClast (P)): 313 ng·h/mL; Kp uu ([4]; read-out: Kp, uu): 0.07; fraction unbound [4, 5]: 0.048; fraction unbound [4, 6]: 0.215
3 | ≤ 6.00 | 7.00 to 11.00 | 10 to 30 ×10⁻⁶ cm/s | 10 to 30 ×10⁻⁶ cm/s | 0.1 to 10 | 7.23 | 56 mL/min/kg | 229 min | 6410 ng·h/mL | 887 ng·h/mL |  |  |  | CN1CCC(n2ccnc2[C@H]2CCC[C@@H](c3ncccc3Cl)N2C)CC1 [I-170] | 
4 | 6.00 to 7.00 | 7.00 to 11.00 | 10 to 30 ×10⁻⁶ cm/s | 10 to 30 ×10⁻⁶ cm/s | 0.1 to 10 | 7.3 | 102 mL/min/kg | 16.7 min | 3280 ng·h/mL | 449 ng·h/mL |  |  |  | CO[C@H]1C[C@H](c2nc3cccc(N4CCN(C)CC4)c3[nH]2)N(C)[C@H](c2ncccc2C)C1 [I-103] | 
5 | 6.00 to 7.00 | 7.00 to 11.00 | > 30 ×10⁻⁶ cm/s | 10 to 30 ×10⁻⁶ cm/s | 0.1 to 10 | 55.8 | 115 mL/min/kg | 15.1 min | 22800 ng·h/mL | 408 ng·h/mL |  |  |  | Cc1cccnc1[C@@H]1CCC[C@H](c2nc3cccc(N4CCN(C)C5(CC5)C4)c3[nH]2)N1C [I-108] | 
6 | 7.00 to 11.00 | 7.00 to 11.00 | 0.1 to 10 ×10⁻⁶ cm/s | 10 to 30 ×10⁻⁶ cm/s | 0.1 to 10 | 2.5 |  |  | 3940 ng·h/mL | 1580 ng·h/mL | 0.2 | 0.011 | 0.135 | Cc1cccnc1[C@@H]1CCC[C@H](c2nc3cccc(N4CCN(C(C)C)CC4)c3[nH]2)N1 [I-128] | 

The remaining lines, values behind:

Row | Compound | pIC50 [1] | pIC50 [2] | Papp A→B at 90 min, 10 μM (in vitro) | Papp B→A at 90 min, 10 μM (in vitro) | efflux ratio at 90 min, 10 μM (in vitro) | Kp [3] | clearance [3] | half-life [3] | AUC(0-t) ([3]; brain, read-out: AUClast (b)) | AUC(0-t) ([3]; plasma, read-out: AUClast (P)) | Kp uu [3] | fraction unbound [3, 5] | fraction unbound [3, 6] | other results
7 | Cc1cc(F)cnc1[C@@H]1CCC[C@H](c2nc3cccc(N4CCN(C)CC4)c3[nH]2)N1C [I-69] | 7.00 to 11.00 | 7.00 to 11.00 | 10 to 30 ×10⁻⁶ cm/s | 10 to 30 ×10⁻⁶ cm/s | 0.1 to 10 | 15 | 168 mL/min/kg | 16.9 min | 4080 ng·h/mL | 272 ng·h/mL | 1.98 | 0.016 | 0.121 | 
8 | CN1[C@@H](c2nc3cccc(N4CCN5CCCC5C4)c3[nH]2)CCC[C@H]1c1ncccc1Cl (some centres unmarked) [I-96] | 6.00 to 7.00 | 7.00 to 11.00 |  |  |  | 31.2 | 102 mL/min/kg | 13.7 min | 15300 ng·h/mL | 14800 ng·h/mL | 11.3 | 0.012 | 0.033 | 
9 | Cc1cccnc1[C@@H]1CCC[C@H](c2nc3cccc(N4CC5CCC(C4)N5C)c3[nH]2)N1C [I-56] | 7.00 to 11.00 | 7.00 to 11.00 | 10 to 30 ×10⁻⁶ cm/s | 10 to 30 ×10⁻⁶ cm/s | 0.1 to 10 | 1.94 | 32.3 mL/min/kg | 184 min | 3000 ng·h/mL | 1540 ng·h/mL | 0.35 | 0.013 | 0.073 | 
10 | Cc1c(Cl)ccnc1[C@@H]1CCC[C@H](c2nc3cccc(N4CCN(C)CC4)c3[nH]2)N1C [I-82] | 7.00 to 11.00 | 7.00 to 11.00 | 10 to 30 ×10⁻⁶ cm/s | 10 to 30 ×10⁻⁶ cm/s | 0.1 to 10 | 4.27 | 172 mL/min/kg | 16.3 min | 1150 ng·h/mL | 269 ng·h/mL | 0.65 | 0.005 | 0.033 | 
11 | COc1ccnc([C@@H]2CCC[C@H](c3nc4cccc(N5CCN(C)CC5)c4[nH]3)N2C)c1C [I-81] | 7.00 to 11.00 | 7.00 to 11.00 | 0.1 to 10 ×10⁻⁶ cm/s | 0.1 to 10 ×10⁻⁶ cm/s | 0.1 to 10 | 7.96 | 33.3 mL/min/kg | 286 min | 11700 ng·h/mL | 1470 ng·h/mL | 1.01 | 0.019 | 0.149 | 
12 | Cc1cccnc1[C@@H]1CCC[C@H](c2nc3ccccc3n2CC2CCN(C(C)C)CC2)N1C [I-23, 1-((1-isopropylpiperidin-4-yl)methyl)-2-((2R,6S)-1-methyl-6-(3-methylpyridin-2-yl)piperidin-2-yl)-1H-benzo[d]imidazole] | 7.00 to 11.00 | 7.00 to 11.00 | 0.1 to 10 ×10⁻⁶ cm/s | 0.1 to 10 ×10⁻⁶ cm/s | 0.1 to 10 |  |  |  |  |  |  |  |  | Kp [4]: 0.41; clearance [4]: 375 mL/min/kg; half-life [4]: 18.1 min; AUC(0-t) ([4]; brain, read-out: AUClast (b)): 49.7 ng·h/mL; AUC(0-t) ([4]; plasma, read-out: AUClast (P)): 120 ng·h/mL; Kp uu [4]: 0; fraction unbound [4, 5]: 0.002; fraction unbound [4, 6]: 0.189
13 | Cc1cccnc1[C@@H]1CCC[C@H](c2nc3cccc(N4C5CCC4CN(C)C5)c3[nH]2)N1 [I-120] | 7.00 to 11.00 | 7.00 to 11.00 | 10 to 30 ×10⁻⁶ cm/s | 10 to 30 ×10⁻⁶ cm/s | 0.1 to 10 | 1.05 |  |  | 5110 ng·h/mL | 4820 ng·h/mL | 0.07 | 0.014 | 0.201 | 
14 | Cc1cccnc1[C@@H]1CCC[C@H](c2nc3cccc(N4CCN5CCCC5C4)c3[nH]2)N1C (some centres unmarked) [I-66] | 7.00 to 11.00 | 7.00 to 11.00 | 10 to 30 ×10⁻⁶ cm/s | 10 to 30 ×10⁻⁶ cm/s | 0.1 to 10 | 44.5 | 212 mL/min/kg | 18.6 min | 9320 ng·h/mL | 209 ng·h/mL |  |  |  | 
15 | Cc1cccnc1[C@@H]1CCC[C@H](c2nc3cccc(N4CCN(C5CC5)CC4)c3[nH]2)N1C [I-76] | 7.00 to 11.00 | 7.00 to 11.00 | > 30 ×10⁻⁶ cm/s | 10 to 30 ×10⁻⁶ cm/s | 0.1 to 10 | 57.2 | 46.5 mL/min/kg | 11.6 min | 59800 ng·h/mL | 1050 ng·h/mL |  |  |  | 
